Assay results as given in patent US6451361B1, “Alkali metal magnesium phosphate hydrate buffering feed mineral” (Agri-Nutrients Technology Group, Inc., priority 2001, dated 2002).
Read-outs that look alike come from different tables or passages of the source.

Legend:
[1] = system: newly hatched broiler chicks; assay: 21-day broiler chick feeding test of phosphorus bioavailability and weight gain; assay type: in vivo; conditions: 21 days
Procedure: The tests were conducted at a University Test Facility starting with newly hatched broiler chicks. The test was carried out over a 21-day period. Weight gain was measured in each group of 10 chicks. Also measured at the end of the test were weight gain/weight of feed, weight percent ash in the tibia, and the relative bioavailability.
Measurements were made comparing the results obtained with the test material and the Standard NRC technical grade hydrous dibasic calcium phosphate.

[2] = system: rumen juices of a ruminant animal; conditions: steer, 50 lbs/day ration, three days on ration
Excerpt: A ruminating steer weighing about 1100 pounds which had been fistulated so that rumen fluid samples could be withdrawn as desired for pH measurement was used in experiments in which the steer was fed a constant high energy ration typical of a finishing feedlot ration. The only change in the rations were in the types and amounts of buffering agent used. The buffering agents were blended into the feed ration prior to its use. The fistulated steer received the same buffered feed ration for three days prior to sampling the rumen fluid and determining pH.

[3] = pH of buffering agent in water; assay type: physicochemical
Excerpt: Materials frequently used in the art to buffer digestive fluids are sodium bicarbonate and magnesium oxide. […] Over-treatment with buffer may be caused by errors in estimates of animal size, and the composition of the digestive fluid and by errors in measuring the amounts of the buffering material.
(§1) The example compares performance of compositions of the instant invention with sodium bicarbonate, with regard to original pH, and amount of acid buffered to pH 6. One gram of buffering agent was mixed with 100 grams water and titrated to pH 6 by 0.1N hydrochloric acid.

[4] = Buffer capacity by titration to pH 6 with 0.1N hydrochloric acid; assay type: physicochemical
Excerpt: as §1

Compound	Ash Content of Tibia, Wt % ([1]; Added P in feed 0.15 Wt %) [Wt %]	Avg. Wt. Gain, Gms ([1]; Added P in feed 0.15 Wt %) [Gms]	Wt. Gain, gms per grm feed ([1]; Added P in feed 0.15 Wt %) [gms per grm feed]	Ash Content of Tibia, Wt % ([1]; Added P in feed 0.25 Wt %) [Wt %]	Avg. Wt. Gain, Gms ([1]; Added P in feed 0.25 Wt %) [Gms]	Wt. Gain, gms per grm feed ([1]; Added P in feed 0.25 Wt %) [gms per grm feed]	Ash Content of Tibia, Wt % ([1]; Added P in feed 0.35 Wt %) [Wt %]	Avg. Wt. Gain, Gms ([1]; Added P in feed 0.35 Wt %) [Gms]	Wt. Gain, gms per grm feed ([1]; Added P in feed 0.35 Wt %) [gms per grm feed]	pH of Rumen Sample ([2]; buffer amount 0.5/1.00 lbs/%)	pH of Rumen Sample ([2]; buffer amount 0.8/1.60 lbs/%)	pH of Buffer 5% in H2O [3]	Buffer Capacity m.eg. of HCl brought to pH per gram compound ([4]; 1 gram in 100 grams water, titrated to pH 6 by 0.1N hydrochloric acid)	speed of changes in pH when combined with aqueous acid ([4]; during titration with 0.1N hydrochloric acid)
hydrous dibasic calcium phosphate [Standard Phosphorus Source]	40.5	639.6	0.688	41.5	664.6	0.725	42.5	667.7	0.722	–	–	–	–	–
O=C([O-])O.[Na+] [NaHCO3, sodium bicarbonate]	–	–	–	–	–	–	–	–	–	6.7	7.4	9.0	10.0 m.eg. of HCl per gram compound	about instant
